For this experiment, the system named is L1210 leukemia ip in BDF1 mice, survival T/C. In words: NCI In Vivo Anticancer Drug Screen. Data for tumor model L1210 Leukemia (intraperitoneal) in B6D2F1 (BDF1) mice. To be noted: endpoint: mean survival time, higher = longer survival. An outline of the steps: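 Transplantable tumor model; survival measured in treated vs vehicle control mice. Value = treated/control.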

Where [1] appears, read: dose: 50.0 mg/kg/injection, schedule: Q01DX001 (ip), vehicle: Klucel (hydroxypropylcellulose) (HPC).
[2] abbreviates: dose: 100.0 mg/kg/injection, schedule: Q01DX001 (ip), vehicle: Klucel (hydroxypropylcellulose) (HPC).
The mark [3] stands for this setting: dose: 200.0 mg/kg/injection, schedule: Q01DX001 (ip), vehicle: Klucel (hydroxypropylcellulose) (HPC).
[4] abbreviates: dose: 100.0 mg/kg/injection, schedule: Q01DX001 (ip), vehicle: carboxymethylcellulose (CMC).
[5] abbreviates: dose: 200.0 mg/kg/injection, schedule: Q01DX001 (ip), vehicle: carboxymethylcellulose (CMC).
The mark [6] stands for this setting: dose: 50.0 mg/kg/injection, schedule: Q01DX009 (ip), vehicle: Klucel (hydroxypropylcellulose) (HPC).
The mark [7] stands for this setting: dose: 100.0 mg/kg/injection, schedule: Q04DX003 (ip), vehicle: Klucel (hydroxypropylcellulose) (HPC).
The mark [8] stands for this setting: dose: 200.0 mg/kg/injection, schedule: Q04DX003 (ip), vehicle: Klucel (hydroxypropylcellulose) (HPC).
Setting [9] is: dose: 400.0 mg/kg/injection, schedule: Q04DX003 (ip), vehicle: Klucel (hydroxypropylcellulose) (HPC).
Where [10] appears, read: dose: 100.0 mg/kg/injection, schedule: Q01DX009 (ip), vehicle: Klucel (hydroxypropylcellulose) (HPC).
Setting [11] is: dose: 200.0 mg/kg/injection, schedule: Q01DX009 (ip), vehicle: Klucel (hydroxypropylcellulose) (HPC).
Setting [12] is: dose: 400.0 mg/kg/injection, schedule: Q01DX009 (ip), vehicle: Klucel (hydroxypropylcellulose) (HPC).

“And” between values parts separate entries of the source, which are not always exact repeats. Equal entries are not always repeated. Inconclusive results and toxic doses are left out.

With `O=C([S][Pb]([c]1ccccc1)([c]1ccccc1)[c]1ccccc1)c1ccccc1`, the T/C runs as follows: (dose: 2.0 mg/kg/injection, schedule: Q01DX009 (ip), vehicle: Klucel (hydroxypropylcellulose) (HPC)) 109 % of control; (dose: 2.0 mg/kg/injection, schedule: Q04DX003 (ip), vehicle: Klucel (hydroxypropylcellulose) (HPC)) 89 % of control; (dose: 4.0 mg/kg/injection, schedule: Q01DX009 (ip), vehicle: Klucel (hydroxypropylcellulose) (HPC)) 123 % of control; (dose: 4.0 mg/kg/injection, schedule: Q04DX003 (ip), vehicle: Klucel (hydroxypropylcellulose) (HPC)) 97 % of control; (dose: 8.0 mg/kg/injection, schedule: Q01DX009 (ip), vehicle: Klucel (hydroxypropylcellulose) (HPC)) 90 % of control; (dose: 8.0 mg/kg/injection, schedule: Q04DX003 (ip), vehicle: Klucel (hydroxypropylcellulose) (HPC)) 94 % of control and 97 % of control. Also, the T/C (dose: 11.0 mg/kg/injection, schedule: Q04DX003 (ip), vehicle: Klucel (hydroxypropylcellulose) (HPC)) was 100 % of control.

With `CCOC(=O)c1ccc(N(CC(O)CN)S(=O)(=O)c2ccc(C)cc2)cc1` (stereo unspecified), the T/C is 100 % of control (dose: 25.0 mg/kg/injection, schedule: Q01DX009 (ip), vehicle: saline with Tween-80) and 95 % of control (dose: 50.0 mg/kg/injection, schedule: Q01DX009 (ip), vehicle: saline with Tween-80).

In the case of `COS(=O)c1ccccc1C(=O)NOCc1ccccc1` (stereo unspecified), the T/C reads like this: under setting [1], 103 % of control; under setting [2], 100 % of control; under setting [3], 107 % of control.

`Cc1cc(C(c2ccccc2)c2ccccc2)cc(C)c1OCc1ccccc1`: the T/C by setting is: under setting [1], 93 % of control; under setting [2], 93 % of control; under setting [3], 90 % of control.

As to `CC1C/C=C2\CSC(NC(=O)/C3=C\N(C/C=C/C=C/C(O)CC(O)CC(=O)N3)C2=O)C(=O)O1` (stereo unspecified), the T/C (dose: 10.6 mg/kg/injection, schedule: Q01DX Z (ip), vehicle: saline) was 100 % of control; the T/C (dose: 16.0 mg/kg/injection, schedule: Q01DX Z (ip), vehicle: saline) is 106 % of control; the T/C (dose: 24.0 mg/kg/injection, schedule: Q01DX Z (ip), vehicle: saline) is 106 % of control; the T/C (dose: 36.0 mg/kg/injection, schedule: Q01DX Z (ip), vehicle: saline) is 103 % of control; the T/C under setting [4] is 110 % of control; the T/C under setting [5] was 94 % of control. Also, where the note is “dose: 400.0 mg/kg/injection, schedule: Q01DX001 (ip), vehicle: carboxymethylcellulose (CMC)”, the T/C is 97 % of control.

As to `O=C(NCCCl)NC1CCCc2ccccc21` (stereo unspecified), the T/C reads like this: (dose: 6.25 mg/kg/injection, schedule: Q01DX009 (ip), vehicle: Klucel (hydroxypropylcellulose) (HPC)) 95 % of control; (dose: 12.5 mg/kg/injection, schedule: Q01DX009 (ip), vehicle: Klucel (hydroxypropylcellulose) (HPC)) 94 % of control; (dose: 25.0 mg/kg/injection, schedule: Q01DX009 (ip), vehicle: Klucel (hydroxypropylcellulose) (HPC)) 90 % of control; under setting [6], 92 % of control; under setting [2], 105 % of control; under setting [3], 91 % of control.

Turning to `Cc1ccc(-n2c(O)c(N=Nc3ccc(Br)cc3)c(=O)n(-c3ccccc3)c2=S)cc1`, the T/C reads like this: under setting [1], 97 % of control; under setting [2], 111 % of control; under setting [3], 94 % of control.

For the compound `CC(C)=CCC(/C=N/N=C(N)N)C(C)C` (stereo unspecified), the T/C runs as follows: (dose: 3.0 mg/kg/injection, schedule: Q01DX Z (ip), vehicle: saline) 96 % of control; (dose: 7.0 mg/kg/injection, schedule: Q01DX Z (ip), vehicle: saline) 105 % of control; (dose: 15.0 mg/kg/injection, schedule: Q01DX Z (ip), vehicle: saline) 91 % of control; (dose: 15.0 mg/kg/injection, schedule: Q01DX Z (oral), vehicle: saline) 104 % of control; (dose: 30.0 mg/kg/injection, schedule: Q01DX Z (ip), vehicle: saline) 94 % of control; (dose: 30.0 mg/kg/injection, schedule: Q01DX Z (oral), vehicle: saline) 101 % of control. In addition, the T/C (dose: 60.0 mg/kg/injection, schedule: Q01DX Z (oral), vehicle: saline) is 87 % of control.

Consider `OC(c1ccccc1)(c1ccccc1)C1C(Cc2ccccc2)C1Cc1ccccc1` (stereo unspecified), for which the T/C (dose: 100.0 mg/kg/injection, schedule: Q01DX001 (ip), vehicle: steriod suspending solution) is 110 % of control; the T/C (dose: 200.0 mg/kg/injection, schedule: Q01DX001 (ip), vehicle: steriod suspending solution) was 112 % of control; the T/C (dose: 400.0 mg/kg/injection, schedule: Q01DX001 (ip), vehicle: steriod suspending solution) was 104 % of control.

For the compound `O=C(OCC(OC(=O)c1ccccc1)C1OCC(OC(=O)c2ccccc2)C1OC(=O)c1ccccc1)c1ccccc1` (stereo unspecified), the T/C reads like this: (dose: 100.0 mg/kg/injection, schedule: Q04DX003 (ip), vehicle: saline with Tween-80) 88 % of control; (dose: 200.0 mg/kg/injection, schedule: Q04DX003 (ip), vehicle: saline with Tween-80) 88 % of control; (dose: 400.0 mg/kg/injection, schedule: Q04DX003 (ip), vehicle: saline with Tween-80) 88 % of control.

As to `Cn1nc2c(c1-c1ccc(O)cc1)CCCc1ccccc1-2`, the T/C runs as follows: under setting [7], 100 % of control; under setting [8], 98 % of control; under setting [9], 98 % of control.

Consider `O=c1cc(-c2ccccc2)nc(Nc2nc3ccc([N+](=O)[O-])cc3[nH]2)[nH]1`, for which the T/C runs as follows: under setting [10], 95 % of control; under setting [7], 100 % of control; under setting [11], 95 % of control; under setting [8], 103 % of control; under setting [12], 87 % of control; under setting [9], 106 % of control.

On to `COc1cc(C=Nc2ccc(-c3csc(COc4ccccc4)n3)cc2)ccc1N(CCCl)CCCl`, for which the T/C (dose: 3.7 mg/kg/injection, schedule: Q01DX015 (ip), vehicle: carboxymethylcellulose (CMC)) was 116 % of control; the T/C (dose: 6.2 mg/kg/injection, schedule: Q01DX015 (ip), vehicle: carboxymethylcellulose (CMC)) was 117 % of control; the T/C (dose: 9.3 mg/kg/injection, schedule: Q01DX015 (ip), vehicle: carboxymethylcellulose (CMC)) was 119 % of control; the T/C (dose: 10.0 mg/kg/injection, schedule: Q01DX001 (ip), vehicle: carboxymethylcellulose (CMC)) is 121 % of control; the T/C (dose: 15.0 mg/kg/injection, schedule: Q01DX015 (ip), vehicle: carboxymethylcellulose (CMC)) was 124 % of control; the T/C (dose: 20.0 mg/kg/injection, schedule: Q01DX001 (ip), vehicle: carboxymethylcellulose (CMC)) was 123 % of control. Moreover, the T/C is 156 % of control (dose: 40.0 mg/kg/injection, schedule: Q01DX001 (ip), vehicle: carboxymethylcellulose (CMC)); 107 % of control (dose: 50.0 mg/kg/injection, schedule: Q01DX001 (ip), vehicle: carboxymethylcellulose (CMC)); 96 % of control and 104 % of control and 92 % of control (dose: 50.0 mg/kg/injection, schedule: Q01DX015 (ip), vehicle: carboxymethylcellulose (CMC)); 164 % of control (dose: 66.6 mg/kg/injection, schedule: Q01DX001 (ip), vehicle: carboxymethylcellulose (CMC)); 156 % of control under setting [4]; 104 % of control under setting [5].

In the case of `CCOC(=O)C/C(=N\NC(=O)c1ccccc1O)C(=O)OCC`, the T/C under setting [6] was 101 % of control, the T/C under setting [10] was 107 % of control, the T/C under setting [11] was 102 % of control and the T/C under setting [12] is 101 % of control.

Take `C1CCC(P(C2CCCCC2)C2CCCCC2)CC1`: the T/C under setting [7] is 93 % of control, the T/C under setting [8] is 93 % of control and the T/C under setting [9] is 89 % of control.

For `CCOC(=O)C(C(=O)OCC)=C(C#N)c1c[nH]c2ccccc12`, the T/C by setting is: under setting [10], 103 % of control; under setting [7], 104 % of control; under setting [11], 96 % of control; under setting [8], 95 % of control; under setting [12], 92 % of control; under setting [9], 96 % of control.

Regarding `Oc1ccccc1C=Nc1ccc(Cl)c(Cl)c1`, the T/C was 93 % of control under setting [10], 93 % of control under setting [11] and 96 % of control under setting [12].
